In article PMC6017062, “Probing the Inhibitor versus Chaperone Properties of sp^2-Iminosugars towards Human β-Glucocerebrosidase: A Picomolar Chaperone for Gaucher Disease” (Molecules : A Journal of Synthetic Chemistry and Natural …, 2018):
Where two headings read alike, the source gives them in different places.

Assays:
[1] = biological target: T1, human β-glucocerebrosidase (GCase) (Homo sapiens, UniProt P04062, R534H); assay: Purified recombinant human GCase inhibition in vitro; format: biochemical; conditions: for Ki: purified recombinant enzyme (Cerezyme), 4-MU glucopyranoside substrate
T1 construct: purchased Genzyme (Genzyme Japan, Tokyo, Japan) / Sanofi Genzyme, Cambridge, MA, USA Cerezyme
T1 sequence (P04062 40-536 R534H): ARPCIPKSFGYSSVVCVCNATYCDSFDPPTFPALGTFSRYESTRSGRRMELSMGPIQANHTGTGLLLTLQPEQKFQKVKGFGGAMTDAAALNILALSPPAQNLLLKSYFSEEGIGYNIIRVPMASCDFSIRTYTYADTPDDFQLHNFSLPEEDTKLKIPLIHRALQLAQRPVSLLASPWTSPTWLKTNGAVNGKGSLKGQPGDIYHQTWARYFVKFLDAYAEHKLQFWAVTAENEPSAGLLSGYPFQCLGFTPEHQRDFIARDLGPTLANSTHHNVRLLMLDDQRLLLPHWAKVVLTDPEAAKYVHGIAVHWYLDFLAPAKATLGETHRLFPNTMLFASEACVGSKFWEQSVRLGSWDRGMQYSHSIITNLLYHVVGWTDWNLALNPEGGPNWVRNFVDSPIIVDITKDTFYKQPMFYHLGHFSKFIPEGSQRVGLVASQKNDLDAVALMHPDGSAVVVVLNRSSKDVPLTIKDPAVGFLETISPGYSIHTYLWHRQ
Method: Comparative assessment of the inhibition abilities of 1–4 against human lysosomal glycosidases in cell lysates (in vitro enzyme assay; see Experimental Section) confirmed the selectivity pattern previously observed for the commercial enzymes: whereas GCase was responsive to μM concentrations of the sp^2-iminosugars, the activity of lysosomal α-glucosidase, α- and β-galactosidases, α- and β-mannosidases, and hexosaminidase was not affected at concentrations of up to 200 μM. The corresponding Ki values were determined at pH 7 and 5 using purified recombinant human GCase and 4-methylumbelliferone (4-MU)-conjugated […] as the substrate (Table 2).
GCase activities were determined as above using purified human GCase, obtained from Genzyme (Genzyme Japan, Tokyo, Japan) in 0.1 M citrate buffer at pH 5 or pH 7 and 4-methylumbelliferone (4-MU)-conjugated β-D-glucopyranoside as the substrate. The reactions were terminated by adding 0.2 mL of 0.2 M glycine sodium hydroxide buffer (pH 10.7). The liberated 4-methylumbelliferone was measured in a black-well plate with a Perkin Elmer Luminescence Spectrometer, Waltham, MA, USA (excitation wavelength: 340 nm; emission: 460 nm).

[2] = biological target: T2, isomaltase (α-Glcase2) (Saccharomyces cerevisiae, UniProt P53051); assay: Commercial glycosidase inhibition: isomaltase (α-Glcase2); format: biochemical; conditions: mean ± SD, three determinations; competitive; n.i. = no inhibition detected at 1 mM
T2 construct: purchased
T2 sequence (P53051 whole entry): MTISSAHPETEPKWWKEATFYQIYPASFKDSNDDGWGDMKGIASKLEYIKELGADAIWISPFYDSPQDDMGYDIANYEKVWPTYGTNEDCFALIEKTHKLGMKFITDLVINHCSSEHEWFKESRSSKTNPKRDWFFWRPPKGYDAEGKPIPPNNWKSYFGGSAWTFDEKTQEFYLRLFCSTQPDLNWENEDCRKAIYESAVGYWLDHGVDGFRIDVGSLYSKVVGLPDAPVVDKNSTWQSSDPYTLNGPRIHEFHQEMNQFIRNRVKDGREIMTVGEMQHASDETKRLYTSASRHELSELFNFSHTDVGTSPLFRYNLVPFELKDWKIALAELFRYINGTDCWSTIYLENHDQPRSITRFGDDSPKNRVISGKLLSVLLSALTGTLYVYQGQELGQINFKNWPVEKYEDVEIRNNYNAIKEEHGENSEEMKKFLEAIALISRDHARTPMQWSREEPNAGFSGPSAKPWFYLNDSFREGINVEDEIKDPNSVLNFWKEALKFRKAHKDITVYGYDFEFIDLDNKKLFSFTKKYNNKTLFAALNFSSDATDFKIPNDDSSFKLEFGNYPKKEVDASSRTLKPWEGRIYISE
Description: We first evaluated the inhibitory properties of the new nonreducing mono- and bicyclic sp^2-iminosugars 4–15 against a panel of commercial glycosidases that included the α-glucosidases maltase (yeast maltase; α-Glcase1) and isomaltase (α-Glcase2) from Saccharomyces cerevisiae and amyloglucosidase (α-Glcase3) from Aspergillus niger, the β-glucosidases from almonds (β-Glcase1) and bovine liver (β-Glcase2), the α-galactosidase from green coffee beans (α-Galase), the β-galactosidase from Escherichia coli (β-Galase), and the α-mannosidase from Jack bean (α-Manase).
Inhibition constant (Ki) values were determined by spectrophotometrically measuring the residual hydrolytic activities of the glycosidases against the respective o- (for β-galactosidase from E. coli) or p-nitrophenyl α- or β-D-glycopyranoside (for other glycosidases) in the presence of the iminosugars. Each assay was performed in phosphate buffer or phosphate-citrate buffer (for α- or β-mannosidase and amyloglucosidase) at the optimal pH for the enzymes. The reactions were initiated by addition of the enzyme to a solution of the substrate in the absence or presence of various inhibitor concentrations. The mixture was incubated for 10–30 min at 37 °C or 55 °C (for amyloglucosidase) and the reaction was quenched by addition of 1 M Na2CO3. Reaction times were appropriate to obtain 10–20% conversion of the substrate in order to achieve linear rates. The absorbance of the resulting mixture was determined at 405 nm. Approximate value of Ki was determined from the slope of Dixon plots using a fixed concentration of substrate (around the Km value for the different glycosidases) and various concentrations of inhibitor. Full Ki determinations and enzyme inhibition mode were determined from the slope of Lineweaver–Burk plots and double reciprocal analysis.

CCCCCCCCN=C1SCC2C(O)C(O)C(O)CN12 (stereo not drawn) [Compound 4, 1-Deoxy-6-thio-5-N,6-S-(N′-octyliminomethylidene)nojirimycin]
fold stronger GCase inhibition of nonreducing vs reducing partner ([1]; 3 vs 1, 4 vs 2): ~20 fold | fold enhancement of GCase inhibition potency upon replacement of O-6 by sulfur, pH 5 ([1]; pH 5, 2 vs 1, 4 vs 3): 107 fold | Ki ([1]; pH 5, read-out: Ki human GCase, pH 5): 59 ± 3.5 nM | fold enhancement of GCase inhibition potency upon replacement of O-6 by sulfur, pH 7 ([1]; pH 7, 2 vs 1, 4 vs 3): 130 fold | Ki ([1]; pH 7, read-out: Ki human GCase, pH 7): 13 ± 1.1 nM | Ki α-Glcase2 [2]: n.i.
